Measured values reported in patent US11149054B2, “Oxysterols and methods of use thereof” (Sage Therapeutics, Inc., priority 2016, dated 2021).
Where two headings read alike, the source gives them in different places.

What was measured:
[1] = target: GlunN1/GluN2A glutamate receptors (Homo sapiens (Human), UniProt Q05586+Q12879); test: Whole-cell patch clamp of mammalian cells (Ionworks Barracuda), positive allosteric modulation, GluN1/GluN2A; format: cell-based
Method in brief: (§1)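 Perforated-patch whole-cell recording, holding −70 mV, −40 mV during application; Cs-based internal pH 7.2, external with 5 mM CaCl2 pH 7.4. Test article pre-applied alone 5 min, then co-applied with EC20 L-glutamate plus 30 μM glycine. EC50 from Hill fit of % activation over the EC20 current.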

[2] = target: GluN2B glutamate receptors (Homo sapiens (Human), UniProt Q05586+Q13224); test: Whole-cell patch clamp of mammalian cells (Ionworks Barracuda), positive allosteric modulation, GluN2B; format: cell-based; conditions: for Emax: read-out: Avg Emax 2B (%)
Method in brief: as §1

[3] = HEK293 cells, % potentiation of current elicited with EC20 L-glutamate and 30 μM glycine, read-out: Avg Emax 2A (%)
[4] = HEK293 cells, co-application with EC20 L-glutamate and 30 μM glycine, 8-point concentration-response, read-out: Avg EC50 2A
[5] = % potentiation of current elicited with EC20 L-glutamate and 30 μM glycine
[6] = co-application with EC20 L-glutamate and 30 μM glycine, 8-point concentration-response, read-out: Avg EC50 2B
[7] = HEK293, read-out: Avg Emax 2A (%)

Chain of GlunN1/GluN2A glutamate receptors (Q12879 23-1464, other chains not shown): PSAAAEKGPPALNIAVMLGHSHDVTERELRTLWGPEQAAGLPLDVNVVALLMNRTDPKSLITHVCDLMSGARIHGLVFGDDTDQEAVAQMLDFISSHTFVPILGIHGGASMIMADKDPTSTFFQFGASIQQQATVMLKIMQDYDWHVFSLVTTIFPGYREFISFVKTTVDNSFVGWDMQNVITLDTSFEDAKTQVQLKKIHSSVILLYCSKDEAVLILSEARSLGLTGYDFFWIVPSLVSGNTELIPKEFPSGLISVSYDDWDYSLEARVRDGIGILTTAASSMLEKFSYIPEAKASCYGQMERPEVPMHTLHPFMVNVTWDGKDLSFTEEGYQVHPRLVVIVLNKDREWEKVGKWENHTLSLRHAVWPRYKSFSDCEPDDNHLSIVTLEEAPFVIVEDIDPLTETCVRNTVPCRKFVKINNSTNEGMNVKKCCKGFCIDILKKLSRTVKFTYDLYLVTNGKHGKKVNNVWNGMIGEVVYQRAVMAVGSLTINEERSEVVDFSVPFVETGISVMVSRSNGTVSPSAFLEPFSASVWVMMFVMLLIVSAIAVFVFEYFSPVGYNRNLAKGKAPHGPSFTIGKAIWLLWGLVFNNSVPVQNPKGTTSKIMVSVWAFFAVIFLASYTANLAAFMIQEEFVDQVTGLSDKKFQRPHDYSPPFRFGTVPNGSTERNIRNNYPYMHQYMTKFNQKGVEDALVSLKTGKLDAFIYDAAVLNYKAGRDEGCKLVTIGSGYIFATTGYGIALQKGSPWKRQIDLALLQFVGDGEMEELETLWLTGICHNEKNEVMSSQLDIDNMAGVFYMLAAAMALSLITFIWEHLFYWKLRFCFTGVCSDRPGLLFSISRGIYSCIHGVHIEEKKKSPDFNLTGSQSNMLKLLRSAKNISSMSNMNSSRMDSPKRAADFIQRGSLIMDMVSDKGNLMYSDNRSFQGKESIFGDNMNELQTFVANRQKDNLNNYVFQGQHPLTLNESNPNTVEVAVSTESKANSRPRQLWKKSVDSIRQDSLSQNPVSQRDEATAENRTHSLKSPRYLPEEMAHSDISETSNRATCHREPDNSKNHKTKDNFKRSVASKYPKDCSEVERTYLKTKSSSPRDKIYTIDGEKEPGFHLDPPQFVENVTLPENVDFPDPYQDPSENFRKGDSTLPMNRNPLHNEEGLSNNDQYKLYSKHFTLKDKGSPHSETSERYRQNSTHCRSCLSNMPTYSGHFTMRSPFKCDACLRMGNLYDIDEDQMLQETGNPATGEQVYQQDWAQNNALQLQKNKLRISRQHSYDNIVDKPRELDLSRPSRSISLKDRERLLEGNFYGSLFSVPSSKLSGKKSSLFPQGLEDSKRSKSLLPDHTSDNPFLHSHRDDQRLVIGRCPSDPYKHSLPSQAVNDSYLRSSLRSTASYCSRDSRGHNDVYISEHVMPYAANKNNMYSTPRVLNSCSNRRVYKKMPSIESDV
Chain of GluN2B glutamate receptors (Q13224 27-1484, other chains not shown): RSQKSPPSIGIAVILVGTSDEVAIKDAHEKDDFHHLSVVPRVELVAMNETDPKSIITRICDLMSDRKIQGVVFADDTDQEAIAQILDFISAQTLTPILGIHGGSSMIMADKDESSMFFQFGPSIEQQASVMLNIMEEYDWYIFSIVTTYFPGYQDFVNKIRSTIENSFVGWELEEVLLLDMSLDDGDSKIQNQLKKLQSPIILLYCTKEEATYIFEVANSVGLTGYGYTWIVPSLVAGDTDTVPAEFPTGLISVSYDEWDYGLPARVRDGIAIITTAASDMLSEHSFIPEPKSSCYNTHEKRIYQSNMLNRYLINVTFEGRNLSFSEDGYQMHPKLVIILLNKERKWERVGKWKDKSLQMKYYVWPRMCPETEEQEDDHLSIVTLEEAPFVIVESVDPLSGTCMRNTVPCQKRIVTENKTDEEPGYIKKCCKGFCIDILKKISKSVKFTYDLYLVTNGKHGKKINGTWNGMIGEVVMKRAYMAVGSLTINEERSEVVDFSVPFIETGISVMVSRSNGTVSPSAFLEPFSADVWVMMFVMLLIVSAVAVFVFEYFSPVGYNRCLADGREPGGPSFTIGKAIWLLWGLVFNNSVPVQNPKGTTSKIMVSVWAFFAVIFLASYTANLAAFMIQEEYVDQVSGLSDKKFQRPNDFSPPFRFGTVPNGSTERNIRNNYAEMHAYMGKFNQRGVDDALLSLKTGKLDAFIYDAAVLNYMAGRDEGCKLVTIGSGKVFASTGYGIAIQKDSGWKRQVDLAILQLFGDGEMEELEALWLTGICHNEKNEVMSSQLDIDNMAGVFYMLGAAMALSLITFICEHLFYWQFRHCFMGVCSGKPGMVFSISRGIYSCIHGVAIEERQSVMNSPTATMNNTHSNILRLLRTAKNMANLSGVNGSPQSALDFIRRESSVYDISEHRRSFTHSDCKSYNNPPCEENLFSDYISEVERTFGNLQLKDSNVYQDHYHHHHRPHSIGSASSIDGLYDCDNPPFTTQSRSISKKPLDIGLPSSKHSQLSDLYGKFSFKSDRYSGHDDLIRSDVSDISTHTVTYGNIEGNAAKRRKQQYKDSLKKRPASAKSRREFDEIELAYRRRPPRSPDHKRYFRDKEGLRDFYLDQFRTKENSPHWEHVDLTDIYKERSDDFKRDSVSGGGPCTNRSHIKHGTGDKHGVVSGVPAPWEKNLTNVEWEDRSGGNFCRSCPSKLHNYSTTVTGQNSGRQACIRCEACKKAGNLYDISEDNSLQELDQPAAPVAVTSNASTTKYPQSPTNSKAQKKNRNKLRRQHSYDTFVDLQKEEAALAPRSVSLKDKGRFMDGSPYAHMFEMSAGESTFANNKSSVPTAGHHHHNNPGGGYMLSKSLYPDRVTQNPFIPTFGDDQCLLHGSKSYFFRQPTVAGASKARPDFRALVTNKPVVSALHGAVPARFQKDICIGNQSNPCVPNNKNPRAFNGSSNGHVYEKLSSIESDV

SMILES | Emax [1, 3] | EC50 [1, 4] | Emax [2, 5] | EC50 [2, 6] | EC50 [1] | EC50 [2] | Emax [1, 7] | Emax [2]
CC[C@]1(O)CC[C@H]2C(=CC[C@@H]3[C@@H]2CC[C@]2(C)[C@@H]([C@H](C)CCC[C@H](O)C(F)(F)F)CC[C@@H]32)C1 [Compound 9567] | 104% | 328 nM | 124% | 378 nM |  |  |  | 
CC[C@]1(O)CC[C@H]2[C@@H](CC[C@@H]3[C@@H]2CC[C@]2(C)[C@@H]([C@H](C)CCCC(C)(C)O)CC[C@@H]32)C1 [Compound 9670] | 154% |  | 213% |  | 366 nM | 220 nM |  | 
CC[C@]1(O)CC[C@H]2C(=CC[C@@H]3[C@@H]2CC[C@]2(C)[C@@H]([C@H](C)CCC[C@@H](C)O)CC[C@@H]32)C1 [Compound 9792] | 64.5% |  | 58.2% |  |  |  |  | 
CC[C@]1(O)CC[C@H]2C(=CC[C@@H]3[C@@H]2CC[C@]2(C)[C@@H]([C@H](C)CCCC4(O)CCC(F)(F)CC4)CC[C@@H]32)C1 [Compound 9810] | 87.1% | 124 nM | 91.6% | 151 nM |  |  |  | 
CC[C@]1(O)CC[C@H]2[C@@H](CC[C@@H]3[C@@H]2CC[C@]2(C)[C@@H]([C@H](C)CCCC4(O)CCC(F)(F)CC4)CC[C@@H]32)C1 [Compound 9813] | 68.7% | 469 nM | 99.9% | 268 nM |  |  |  | 
CC[C@]1(O)CC[C@H]2C(=CC[C@@H]3[C@@H]2CC[C@]2(C)[C@@H]([C@H](C)CCC[C@H](C)O)CC[C@@H]32)C1 [Compound 9911] | 234% |  | 326% |  |  |  |  | 
CC[C@]1(O)CC[C@H]2C(=CC[C@@H]3[C@@H]2CC[C@]2(C)[C@@H]([C@H](C)CCCC(O)C(C)(C)C)CC[C@@H]32)C1 (some centres unmarked) [Compound 10012] | 154% | 790 nM | 168% | 910 nM |  |  |  | 
CC[C@]1(O)CC[C@H]2C(=CC[C@@H]3[C@@H]2CC[C@]2(C)[C@@H]([C@H](C)CCC[C@@H](O)C(C)(C)C)CC[C@@H]32)C1 [Compound 10042] | 65.9% |  | 113% |  | > 10000 nM | 1880 nM |  | 
CC[C@]1(O)CC[C@H]2C(=CC[C@@H]3[C@@H]2CC[C@]2(C)[C@@H]([C@H](C)CCC[C@H](O)C(C)(C)C)CC[C@@H]32)C1 [Compound 10043] | 146% |  | 211% |  | 897 nM | 1070 nM |  | 
CC[C@]1(O)CC[C@H]2C(=CC[C@@H]3[C@@H]2CC[C@]2(C)[C@@H]([C@H](C)CCC[C@@H](O)C(C)C)CC[C@@H]32)C1 [Compound 10114] | 146% |  | 179% |  |  |  |  | 
CC[C@]1(O)CC[C@H]2C(=CC[C@@H]3[C@@H]2CC[C@]2(C)[C@@H]([C@H](C)CCC[C@H](O)C(C)C)CC[C@@H]32)C1 [Compound 10115] | 192% | 556 nM | 226% | 458 nM |  |  |  | 
CC[C@]1(O)CC[C@H]2C(=CC[C@@H]3[C@@H]2CC[C@]2(C)[C@@H]([C@H](C)CCCC4(O)CCOCC4)CC[C@@H]32)C1 [Compound 10216] | 79.3% | 1200 nM | 121% | 446 nM |  |  |  | 
CC[C@]1(O)CC[C@H]2C(=CC[C@@H]3[C@@H]2CC[C@]2(C)[C@@H]([C@H](C)CCCC4(O)CCC(C)(C)CC4)CC[C@@H]32)C1 [Compound 10317] | 56.7% |  | 59.9% |  |  |  |  | 
CC[C@]1(O)CC[C@H]2C(=CC[C@@H]3[C@@H]2CC[C@]2(C)[C@@H]([C@H](C)CCC[C@@H](O)C(F)(F)F)CC[C@@H]32)C1 [Compound 10456] | 231% | 240 nM | 266% | 209 nM |  |  |  | 
CC[C@]1(O)CC[C@H]2C(=CC[C@@H]3[C@@H]2CC[C@]2(C)[C@@H]([C@H](C)CCC[C@](C)(O)C(F)(F)F)CC[C@@H]32)C1 [Compound 10557] | 190% | 287 nM | 202% | 192 nM |  |  |  | 
CCC(O)CCC[C@@H](C)[C@H]1CC[C@H]2[C@@H]3CC=C4C[C@](O)(CC)CC[C@@H]4[C@H]3CC[C@]12C (some centres unmarked) [Compound 10673] |  |  |  |  |  |  | 216% | 214%
CC[C@]1(O)CC[C@H]2C(=CC[C@@H]3[C@@H]2CC[C@]2(C)[C@@H]([C@H](C)CCCC4(O)CC4)CC[C@@H]32)C1 [Compound 10790] | 160% | 204 nM | 246% | 271 nM |  |  |  | 
CC[C@@H](O)CCC[C@@H](C)[C@H]1CC[C@H]2[C@@H]3CC=C4C[C@](O)(CC)CC[C@@H]4[C@H]3CC[C@]12C [Compound 10841] |  |  |  |  | > 10000 nM | > 10000 nM | 15.6% | 30.1%
CC[C@H](O)CCC[C@@H](C)[C@H]1CC[C@H]2[C@@H]3CC=C4C[C@](O)(CC)CC[C@@H]4[C@H]3CC[C@]12C [Compound 10949] |  |  |  |  |  |  | 97.4% | 147%
C[C@H](CCCC1(O)CCC(F)(F)CC1)[C@H]1CC[C@H]2[C@@H]3CC[C@H]4C[C@](O)(C(F)(F)F)CC[C@]4(C)[C@H]3CC[C@]12C [Compound 11786] | 152% | 584 nM | 151% | 1010 nM |  |  |  | 
CC(C)[C@H](O)CCC[C@@H](C)[C@H]1CC[C@H]2[C@@H]3CC[C@H]4C[C@](O)(C(F)(F)F)CC[C@]4(C)[C@H]3CC[C@]12C [Compound 11828] |  |  |  |  | 147 nM | 76.9 nM | 142% | 114%
C[C@H](CCC[C@H](O)C(F)(F)F)[C@H]1CC[C@H]2[C@@H]3CC[C@H]4C[C@](O)(C(F)(F)F)CC[C@]4(C)[C@H]3CC[C@]12C [Compound 11934] | 113% |  | 70% |  |  |  |  | 
C[C@H](CCC[C@@H](O)C(C)(C)C)[C@H]1CC[C@H]2[C@@H]3CC[C@H]4C[C@](O)(C(F)(F)F)CC[C@]4(C)[C@H]3CC[C@]12C [Compound 12055] | 114% |  | 185% |  |  |  |  | 
C[C@H](CCC[C@H](O)C(C)(C)C)[C@H]1CC[C@H]2[C@@H]3CC[C@H]4C[C@](O)(C(F)(F)F)CC[C@]4(C)[C@H]3CC[C@]12C [Compound 12156] | 43.2% |  | 111% |  |  |  |  | 
C[C@H](CCC1(O)CCC(C)(C)CC1)[C@H]1CC[C@H]2[C@@H]3CC[C@H]4C[C@](O)(C(F)(F)F)CC[C@]4(C)[C@H]3CC[C@]12C [Compound E-2817] | 29.9% |  | 20.4% |  |  |  |  | 
